Laboratory results taken from patent publication US7935673B2, “Polyphenol glycoside isolated from acerola” (Nichirei Biosciences, Inc., priority 2004, dated 2011).

Key:
[1] = test system: α-glucosidase (yeast-derived reagent); assay: α-Glucosidase inhibitory activity (maltose substrate); assay type: biochemical; conditions: for IC50: yeast-derived α-glucosidase, maltose substrate, 37° C., 60 minutes, read-out: 50% α-glucosidase inhibition concentration
Description: A yeast-derived reagent (Wako Pure Chemical) was used as an α-glucosidase. The reagent was dissolved in 10 mM phosphate buffer (pH 7.0) containing 0.2% bovine serum albumin.
In the experiment, 0.25 mL of 100 mM phosphate buffer, 0.25 mL of each sample solution at a different concentration, and 0.125 mL of a maltose aqueous solution serving as a substrate at a concentration of 10 mg/mL were mixed, followed by heating at 37° C. for 5 minutes. Then, 0.125 mL of an α-glucosidase solution was added thereto, followed by enzyme treatment at 37° C. for 60 minutes. As a reaction termination solution, 0.5 mL of a 0.2 M sodium carbonate solution was added to each resultant, followed by mixing. The glucose concentration of each reaction solution was measured using Glucose CII-Test Wako (Wako Pure Chemical). An inhibition rate (%) was calculated based on a proportion of the glucose concentration of a solution to which a sample had been added to the glucose concentration of a blank solution to which no sample had been added. Then, the concentration of each sample at which 50% enzyme activity was inhibited was calculated based on such inhibition rate derived from the concentration of the sample, followed by comparison.

[2] = Antioxidative activity measurement by DPPH radical scavenging; assay type: biochemical; conditions: for DPPH radical 50% scavenging concentration: 30° C., 30 minutes, absorbance at 517 nm; for radical scavenging activity compared with α-tocopherol: DPPH reagent, result in words
Description: Antioxidative activity was evaluated with the use of a stable-radical diphenyl-p-picrylhydradil (DPPH)/ethanol solution. 400 μl of a sample/methanol solution was mixed with 1600 μl of 250 mM acetate buffer (pH=5.5) and 1200 μl of ethanol, at a different concentration, followed by preincubation at 30° C. for 5 minutes. Then, 800 μl of a 500 μM DPPH/ethanol solution was added to each resulting solution, followed by mixing. Each resultant was allowed to stand at 30° C. for 30 minutes, followed by measurement of absorbance at 517 nm. α-tocopherol was also subjected to the same operation. The obtained solution was thus designated as a positive control. A blank solution used was prepared by the same operation with the use of methanol instead of a sample solution. Based on absorbances measured, radical scavenging rates were calculated based on the following equation. Scavenging rate(%)=(1−[Absorbance of a sample]/[Absorbance of a blank])×100 [Equation 1]
The concentration of a sample solution was changed stepwise for the measurement of the aforementioned scavenging rate. As a result, the concentration of a sample solution at which the DPPH radical scavenging rate was 50% was obtained so as to be designated as the DPPH radical 50% scavenging concentration. The lower such value, the higher the radical scavenging capacity.

[3] = result in words; cited from earlier work

## OCC1OC2O[C@@H]3[C@@H](c4ccc(O)c(O)c4)Oc4cc(O)cc(O)c4[C@@H]3OC2C(O)C1O (stereo in doubt) [Product of the present invention]
[1]; result in words
  glucosidase inhibitory activity compared with isoquercitrin: several times stronger than that of isoquercitrin
  glucosidase inhibitory activity compared with taxifolin: several times stronger
[1]; result in words, listed as polyphenol glycoside of the present invention
  glucosidase inhibitory activity compared with taxifolin: several times stronger than that of taxifolin
[1]
  IC50: 164 µM
[2]
  DPPH radical 50% scavenging concentration: 0.080 mg/mL
  radical scavenging activity compared with α-tocopherol: comparable to or exceeding that of α-tocopherol
[2]; listed as novel polyphenol glycoside of the present invention
  radical scavenging activity compared with α-tocopherol: almost comparable to that of α-tocopherol

## O=C1c2c(O)cc(O)cc2O[C@H](c2ccc(O)c(O)c2)[C@H]1O [Taxifolin, taxifolin, reference compound]
[1]
  IC50: 892 µM

## O=c1c(OC2OC(CO)C(O)C(O)C2O)c(-c2ccc(O)c(O)c2)oc2cc(O)cc(O)c12 (centres unmarked) [Isoquercitrin, quercetin-3-glucoside, reference compound]
[1]
  IC50: 727 µM

## Cc1c(C)c2c(c(C)c1O)CC[C@@](C)(CCC[C@H](C)CCC[C@H](C)CCCC(C)C)O2 [α-tocopherol, reference compound]
[3]
  solubility in water: insoluble in water
[2]
  DPPH radical 50% scavenging concentration: 0.127 mg/mL
